Test results: patent US12193456B2, “Early life nutrition” (DSM IP ASSETS B.V., priority 2019, dated 2025)

Columns and labels:
calves = experiment: Methane emissions from calves measured using the GreenFeed system after early-life supplementation; format: in vivo, calves (Holstein, Montbéliarde, Holstein×Montbéliarde); details: for methane emissions: n = 10
Description: The methane emissions respectively methane reductions as referred to herein can be measured in individual animals in metabolic chambers by methods known in the art (Grainger et al., 2007 J. Dairy Science; 90: 2755-2766). Moreover, it can also be assessed at barn level by an emerging technology using laser beam (McGinn et al., 2009, Journal of Environ-mental Quality; 38: 1796-1802). Alternatively, methane produced by a ruminant can also be assessed with the GreenFeed system (C-Lock, Rapid City, SD USA), which method is preferred.
(§1) At birth 18 female Holstein (n=12), Montbéliarde (n=4) and Holstein×Montbéliarde (n=2) calves were randomly assigned to either a treatment group (3 mg 3-NOP (active)/kg BW) or control group (placebo supplement i.e. without 3-NOP but with silica and propylene glycol). 3-NOP was supplemented in the form of a 3-NOP powdered formulation (10 wt.-% of 3-NOP admixed with silica and propylene glycol) such that breed distribution and birthweight were balanced across groups. Treatment was administered daily from birth until three weeks post-weaning (week 14) (admixed in a small volume of water and delivered by an oral gavage). Calves were weighed weekly. Milk and concentrate intake prior to weaning was recorded using automated feeders. Animals were group housed in a single pen following weaning. Samples of rumen liquid were collected at week 1, 4, 11, 14, 23 and 60 weeks of life and DNA from these samples of rumen liquid content were extracted and subjected to Illumina MiSeq sequencing. Methane emissions from the calves were measured using the GreenFeed system (C-Lock, Rapid City, SD USA) from weaning at week 11 to week 23 and later from week 56 to 60 of life.

[1] = Calf physiological parameters (bodyweight, average daily gain); format: in vivo, calves (Holstein, Montbéliarde, Holstein×Montbéliarde); details: for effect on host animal performance (in words): early life treatment, birth to week 14
Protocol: as §1

Bodyweight (BW) of calves ([1]; age 0 weeks, treatment group n = 10): 41.6 kg | Bodyweight (BW) of calves ([1]; age 11 weeks, treatment group n = 10): 102.2 kg | Bodyweight (BW) of calves ([1]; age 14 weeks, treatment group n = 10): 119.5 kg | Bodyweight (BW) of calves ([1]; age 17 weeks, treatment group n = 10): 134.9 kg | Bodyweight (BW) of calves ([1]; age 20 weeks, treatment group n = 10): 151.8 kg | Bodyweight (BW) of calves ([1]; age 23 weeks, treatment group n = 10): 189.5 kg | Bodyweight (BW) of calves ([1]; age 56 to 60 weeks, treatment group n = 10): 339 kg | effect on host animal performance (in words) [1]: no detrimental effects | Average Daily Gain (ADG) ([1]; from week 0 to 23 weeks of life, treatment group n = 10): 0.79 kg/day
SMILES: O=[N+]([O-])OCCCO [3-nitrooxypropanol, 3-Nitrooxypropanol]
methane emissions of treated animals (in words) (calves; after 60 weeks of age, supplementation from birth until 14 weeks of age): lower methane emissions | methane emissions (calves; age 11 weeks (weaning), during daily supplementation, 3 mg 3-NOP/kg BW oral gavage from birth): 45.0 g/day | methane emissions (calves; age 14 weeks, end of daily supplementation, 3 mg 3-NOP/kg BW oral gavage from birth): 63.4 g/day | methane emissions (calves; age 17 weeks, no supplementation (stopped week 14)): 68.2 g/day | methane emissions (calves; age 20 weeks, no supplementation (stopped week 14)): 88.9 g/day | methane emissions (calves; age 23 weeks, no supplementation (stopped week 14)): 97.13 g/day | methane emissions (calves; age 56 to 60 weeks, no supplementation (stopped week 14)): 193.0 g/day | overall reduction in methane emissions (g CH4/d) (calves; throughout the post-weaning period (week 11 to 23), vs control, P=0.03, treatment ceased three weeks post-weaning): 11.6% | overall reduction in methane emissions (calves; weeks 56 to 60 of life, vs control, P<0.05, no supplementation since week 14): about 19% | effect on host animal performance (in words) ([1]; listed as 3-NOP): no adverse effect on performance
